Reference: patent US6355673B1, “Substituted diaminocarboxylic acids” (Aventis Pharma Deutschland GmbH, priority 1997, dated 2002)

Experiments:
stromelysin (MMP-3) = target: T1, stromelysin (MMP-3) (Homo sapiens, UniProt P08254); assay: Enzyme inhibition of the catalytic domain of human stromelysin (fluorogenic substrate); format: biochemical; details: 15 min preincubation, pH=6.5, fluorescence 328 nm (ex)/393 nm (em)
T1 construct: enzymatic activity of the catalytic domains of human stromelysin and of neutrophil collagenase; made in house
Procedure: (§1) Preparation and determination of the enzymatic activity of the catalytic domains of human stromelysin and of neutrophil collagenase.
(§2) The enzymes stromelysin (MMP-3) and neutrophil collagenase (MMP-8) were prepared according to Ye et al. (Biochemistry; 31 (1992) pages 11231-11235). To measure the enzyme activity or the enzyme inhibitor action, 70 μl of buffer solution and 10 μl of enzyme solution are incubated for 15 min with 10 μl of a 10% strength (v/v) aqueous dimethyl sulfoxide solution, which optionally contains the enzyme inhibitor. After addition of 10 μl of a 10% strength (v/v) aqueous dimethyl sulfoxide solution which contains 1 mil/L of the substrates, the enzyme reaction is monitored by fluorescence spectroscopy (328 nm (ex)/393 nm(em)). The enzyme activity is shown as the extinction increase/min. The IC50 values listed in Table 2 are determined as those inhibitor concentrations which in each case lead to a 50% inhibition of the enzyme.
(§3) The buffer solution contains 0.05% Brij (Sigma, Deisenhofen, Germany) and also 0.1 mol/L tris/HCl, 0.1 mol/L NaCl, 0.01 mol/L CaCl2 and 0.1 mol/L piperazine-N,N′-bis(2-ethanesulfonic acid) (pH=6.5). The enzyme solution contains 5 μg/ml of one of the enzyme domains prepared according to Ye et al. The substrate solution contains 1 mil/L of the fluorogenic substrate (7-methoxycoumarin-4-yl)acetyl-Pro-Leu-Gly-Leu-3-(2′,4′-dinitrophenyl)-L-2,3-diaminopropionyl-Ala-Arg-NH2 (Bachem, Heidelberg, Germany).

[1] = target: T2, neutrophil collagenase (MMP-8) (Homo sapiens, UniProt P22894); assay: Enzyme inhibition of the catalytic domain of neutrophil collagenase (fluorogenic substrate); format: biochemical; details: 15 min preincubation, pH=6.5, fluorescence 328 nm (ex)/393 nm (em)
T2 construct: enzymatic activity of the catalytic domains of human stromelysin and of neutrophil collagenase; made in house
Procedure: as §1, §2, §3

T1 sequence (P08254 100-272 limits assumed): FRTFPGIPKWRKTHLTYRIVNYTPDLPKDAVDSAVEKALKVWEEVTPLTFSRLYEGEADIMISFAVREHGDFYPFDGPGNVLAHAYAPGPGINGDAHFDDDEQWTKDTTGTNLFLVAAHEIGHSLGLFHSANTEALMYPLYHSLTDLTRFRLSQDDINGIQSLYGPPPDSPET
T2 sequence (P22894 100-262 limits assumed): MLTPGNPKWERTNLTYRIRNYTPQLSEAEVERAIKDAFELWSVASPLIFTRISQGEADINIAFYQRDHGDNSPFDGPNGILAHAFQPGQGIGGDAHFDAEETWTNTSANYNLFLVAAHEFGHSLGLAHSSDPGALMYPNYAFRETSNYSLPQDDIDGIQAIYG

SMILES | melting point [°C] | IC50 (stromelysin (MMP-3)) [nM] | IC50 [1] [nM]
O=C(O)C(CCN1C(=O)c2ccccc2C1=O)NS(=O)(=O)c1ccc(-c2ccccc2)cc1 (racemic) [Example 27] | 176 |  | 
O=C(O)C(CCN1C(=O)c2ccccc2C1=O)NS(=O)(=O)c1ccc(-c2ccc(Cl)cc2)cc1 (racemic) [Example 29] | 238 | 6 | 3
O=C(O)C(CCCN1C(=O)c2ccccc2C1=O)NS(=O)(=O)c1ccc(-c2ccccc2)cc1 (racemic) [Example 30] | 168 | 30 | 5
O=C(O)C(CCCN1C(=O)c2ccccc2C1=O)NS(=O)(=O)c1ccc(-c2ccc(Cl)cc2)cc1 (racemic) [Example 31] | 132 | 5 | 2
O=C(O)C(CCCCN1C(=O)c2ccccc2C1=O)NS(=O)(=O)c1ccc(-c2ccccc2)cc1 (racemic) [Example 33] | 181 |  | 
O=C(O)[C@@H](CCCN1C(=O)c2ccccc2C1=O)NS(=O)(=O)c1ccc(-c2ccc(Cl)cc2)cc1 [Example 6, 2-(2R)-(4-Chlorobiphenylsulfonylamino)-5-phthalimidoyl-pentanoic acid] | 178 | 5 | 2
COC(=O)[C@@H](CCCCNC(=O)OCc1ccccc1)NS(=O)(=O)c1ccc(-c2ccc(Cl)cc2)cc1 [Example 17] | 69 to 70 |  | 
O=C(O)[C@H](CCN1C(=O)c2ccccc2C1=O)NS(=O)(=O)c1ccc(-c2ccccc2)cc1 [Example 28] | 167 | 40 | 6
O=C(O)[C@H](CCCN1C(=O)c2ccccc2C1=O)NS(=O)(=O)c1ccc(-c2ccc(Cl)cc2)cc1 [Example 32] | 179 | 6 | 2
O=C(O)[C@H](CCCN1Cc2ccccc2C1=O)NS(=O)(=O)c1ccc(-c2ccc(Cl)cc2)cc1 [Example 34] | 213 to 215 | 4 | 2
O=C(O)[C@H](CCCN1Cc2ccccc2C1=O)NS(=O)(=O)c1ccc(Oc2ccc(Cl)cc2)cc1 [Example 68] | 223 to 225 |  | 
O=C(/C=C/c1ccc(F)cc1)NCCC[C@H](NS(=O)(=O)c1ccc(-c2ccc(Cl)cc2)cc1)C(=O)O [Example 131] |  | 20 | 5
O=C(/C=C/c1ccc(Cl)cc1)NCCC[C@H](NS(=O)(=O)c1ccc(-c2ccc(Cl)cc2)cc1)C(=O)O [Example 132] |  | 30 | 10
O=C(CCc1ccccc1)NCCC[C@H](NS(=O)(=O)c1ccc(-c2ccc(Cl)cc2)cc1)C(=O)O [Example 133] |  | 5 | 2
O=C(O)[C@H](CCCN1C(=O)c2ccccc2S1(=O)=O)NS(=O)(=O)c1ccc(-c2ccc(Cl)cc2)cc1 [Example 134] |  | 5 | 2
N#Cc1ccccc1C(=O)NCCC[C@H](NS(=O)(=O)c1ccc(-c2ccc(Cl)cc2)cc1)C(=O)O [Example 135] |  | 30 | 8
CN(C)c1ccc(C(=O)NCCC[C@H](NS(=O)(=O)c2ccc(-c3ccc(Cl)cc3)cc2)C(=O)O)cc1 [Example 136] |  | 10 | 7
CN(C)c1ccccc1C(=O)NCCC[C@H](NS(=O)(=O)c1ccc(-c2ccc(Cl)cc2)cc1)C(=O)O [Example 137] |  | 20 | 7
Cc1cc(C(=O)NCCC[C@H](NS(=O)(=O)c2ccc(-c3ccc(Cl)cc3)cc2)C(=O)O)ccc1[N+](=O)[O-] [Example 138] |  | 30 | 10
COc1cccc(OC)c1C(=O)NCCC[C@H](NS(=O)(=O)c1ccc(-c2ccc(Cl)cc2)cc1)C(=O)O [Example 139] |  | 50 | 20
O=C(/C=C/C1C=NC=N1)NCCC[C@H](NS(=O)(=O)c1ccc(-c2ccc(Cl)cc2)cc1)C(=O)O (stereo partly drawn) [Example 140] |  | 60 | 20

Continued, values first:

melting point [°C] | IC50 (stromelysin (MMP-3)) [nM] | IC50 [1] [nM] | SMILES
 | 10 | 10 | O=C(NCCC[C@H](NS(=O)(=O)c1ccc(-c2ccc(Cl)cc2)cc1)C(=O)O)c1ccc2[nH]cnc2c1 [Example 141]
 | 10 | 4 | NS(=O)(=O)c1ccc(C(=O)NCCC[C@H](NS(=O)(=O)c2ccc(-c3ccc(Cl)cc3)cc2)C(=O)O)cc1 [Example 142]
 | 5 | 2 | O=C(O)[C@H](CCCNC(=O)N1CCCC1)NS(=O)(=O)c1ccc(-c2ccc(Cl)cc2)cc1 [Example 143]
 | 10 | 3 | CN(CCC[C@H](NS(=O)(=O)c1ccc(-c2ccc(Cl)cc2)cc1)C(=O)O)C(=O)C1CC1 [Example 144]
 | 10 | 5 | CN(CCC[C@H](NS(=O)(=O)c1ccc(-c2ccc(Cl)cc2)cc1)C(=O)O)Cc1ccccc1 [Example 145]
 | 30 | 3 | CC(C)(C)OC(=O)NCCC[C@H](NS(=O)(=O)c1ccc(-c2ccccc2)cc1)C(=O)O [Example 146]
 | 30 | 10 | COc1ccccc1C(=O)NCCC[C@H](NS(=O)(=O)c1ccc(-c2ccc(Cl)cc2)cc1)C(=O)O [Example 151]
 | 60 | 10 | COc1cccc(C(=O)NCCC[C@H](NS(=O)(=O)c2ccc(-c3ccc(Cl)cc3)cc2)C(=O)O)c1 [Example 152]
 | 30 | 9 | Cn1cccc1C(=O)NCCC[C@H](NS(=O)(=O)c1ccc(-c2ccc(Cl)cc2)cc1)C(=O)O [Example 154]
 | 60 | 20 | COc1cc(Cl)cc(C(=O)NCCC[C@H](NS(=O)(=O)c2ccc(-c3ccc(Cl)cc3)cc2)C(=O)O)c1 [Example 156]
 | 40 | 7 | O=C(CCCc1ccccc1)NCCC[C@H](NS(=O)(=O)c1ccc(-c2ccc(Cl)cc2)cc1)C(=O)O [Example 157]
 | 7 | 2 | O=C(O)[C@H](CCCN1C(=O)C2CSCN2C1=O)NS(=O)(=O)c1ccc(-c2ccc(Cl)cc2)cc1 (stereo partly drawn) [Example 158]
 | 70 | 10 | O=C(NCCC[C@H](NS(=O)(=O)c1ccc(-c2ccccc2)cc1)C(=O)O)c1ccccc1Cl [Example 160]
 | 40 | 4 | O=C(NCCC[C@H](NS(=O)(=O)c1ccc(-c2ccccc2)cc1)C(=O)O)C1CC1 [Example 161]
 | 50 | 6 | O=C(NCCC[C@H](NS(=O)(=O)c1ccc(-c2ccc(Cl)cc2)cc1)C(=O)O)c1cc(Cl)ccc1O [Example 162]
 | 40 | 20 | Cc1oncc1C(=O)NCCCC[C@@H](NS(=O)(=O)CCc1ccc(-c2ccccc2)cc1)C(=O)O [Example 168]
226 to 227 |  |  | Cc1cc(C)nc(NCCC[C@H](NS(=O)(=O)c2ccc(-c3ccccc3)cc2)C(=O)O)n1 [Example 169]
177 to 179 | 20 | 10 | Cc1cc(C)nc(NCCC[C@H](NS(=O)(=O)c2ccc(-c3ccc(Cl)cc3)cc2)C(=O)O)n1 [Example 170]
 | 30 | 10 | O=C(O)[C@H](CCCN1C(=O)c2ccc(Cl)cc2C1=O)NS(=O)(=O)c1ccc(-c2ccc(Cl)cc2)cc1 [Example 171]
131 to 133 |  |  | CC(C)(C)OC(=O)NCCC[C@H](NS(=O)(=O)c1ccc(Oc2ccc(Cl)cc2)cc1)C(=O)O [Example 172]
